Like-named read-outs stand apart in the source and are kept apart here.
How the values were obtained:
[1] = Plasma pharmacokinetics of vinorelbine and deacetylvinorelbine after oral vinorelbine in CES2-modified mice; assay type: in vivo, mouse; details: mouse, plasma, oral vinorelbine 10 mg/kg, plasma; for AUC(0-t): male, po, 10 mg/kg, read-out: AUC0-4h; for Cmax: read-out: Cmax; for Tmax: read-out: Tmax
Protocol: (§1) For capecitabine 2-h experiments, 6–7 female mice received oral capecitabine (500 mg/kg, 10 μL/g), and tail vein blood samples were collected at 0.125, 0.25, 0.5 and 1 h after drug administration. For the vinorelbine 4-h experiment, 6-7 male mice received vinorelbine intravenously (10 mg/kg, 5 μL/g) or orally (10 mg/kg, 10 μL/g) using a blunt-ended needle. Tail vein blood samples were collected at 0.125, 0.25, 0.5, 1 and 2 h after drug administration. […] At the last time point in each experiment (2 or 4 h), mice were anesthetized with 5% isoflurane and blood was collected by cardiac puncture. […] Plasma was isolated from the blood by centrifugation at 9000 × g for 6 min at 4 °C, and the plasma fraction was collected and stored at −30 °C until analysis.
(§2) Concentrations of capecitabine (and its metabolites) and vinorelbine (and its metabolite) in mouse plasma samples and organ homogenates were determined using two independent validated high-performance liquid chromatography-tandem mass spectrometry assays.
(§3) Pharmacokinetic parameters were calculated by non-compartmental methods using the PK solver software. […] Differences were considered statistically significant when P < 0.05. All data are presented as mean ± SD.

[2] = Plasma pharmacokinetics of vinorelbine and deacetylvinorelbine after i.v. vinorelbine in CES2-modified mice; details: male, mouse, plasma, iv, 10 mg/kg, AUC0-4h, i.v. vinorelbine 10 mg/kg
Protocol: In order to minimize variation among individuals, mice were fasted for 3 h before drug was administered orally or intravenously. […] For the vinorelbine 4-h experiment, 6-7 male mice received vinorelbine intravenously (10 mg/kg, 5 μL/g) or orally (10 mg/kg, 10 μL/g) using a blunt-ended needle. […] Time points of termination were chosen to allow both reasonable assessment of the plasma exposure of the compound and its main metabolites, and adequate measurement of tissue concentrations. In order to minimize the generation and use of mice, and as no pronounced sex differences were expected, female mice were used for the capecitabine studies and male mice for the vinorelbine studies. Tail vein blood sample collection (~50 μL) was performed using microvettes containing dipotassium-EDTA. All blood samples were rapidly placed on ice to limit any ongoing hydrolysis. At the last time point in each experiment (2 or 4 h), mice were anesthetized with 5% isoflurane and blood was collected by cardiac puncture. Cardiac puncture blood samples (600–800 μL) were collected in Eppendorf tubes containing heparin as an anticoagulant. The mice were then sacrificed by cervical dislocation and brain, liver, kidney, lung, small intestine and testis were rapidly removed. Plasma was isolated from the blood by centrifugation at 9000 × g for 6 min at 4 °C, and the plasma fraction was collected and stored at −30 °C until analysis. Organs were homogenized with 4% (w/v) bovine serum albumin and stored at −30 °C until analysis. Relative metabolite-to-parental drug ratio after drug administration was calculated by determining metabolite tissue concentration relative to corresponding parental drug concentration at the last time point.
as §2
Pharmacokinetic parameters were calculated by non-compartmental methods using the PK solver software. The area under the plasma concentration-time curve (AUC) was calculated using the trapezoidal rule, without extrapolating to infinity. The peak plasma concentration (Cmax) and the time of maximum plasma concentration (Tmax) were estimated from the original (individual mouse) data. One-way analysis of variance (ANOVA) was used when multiple groups were compared and the Tukey’s test post hoc correction was used to accommodate multiple testing. The two-sided unpaired Student’s t-test was used when treatments or differences between two specific groups were compared. Kruskal-Wallis rank test was used for semi-quantitative assessment for (H&E)-staining of white adipose tissue and Oil Red O-staining of liver. All statistical analyses were performed using the software GraphPad Prism 8 (GraphPad Software Inc., La Jolla, CA, USA). All the linear data were log-transformed before statistical tests were applied. Differences were considered statistically significant when P < 0.05. All data are presented as mean ± SD.

[3] = Tissue concentrations of vinorelbine and deacetylvinorelbine 4 h after oral vinorelbine in CES2-modified mice; assay type: in vivo, mouse; details: male, mouse, oral, 10 mg/kg, oral vinorelbine 10 mg/kg
Protocol: as §1, §2, §3

[4] = Tissue concentrations of vinorelbine and deacetylvinorelbine 4 h after i.v. vinorelbine in CES2-modified mice; assay type: in vivo, mouse; details: male, mouse, intravenous, 10 mg/kg, i.v. vinorelbine 10 mg/kg
Protocol: as §1, §2, §3

[5] = parameters: method as in PMID 11822766; details: 24 patients; oral vinorelbine 80 mg/m^2; cited from earlier work
[6] = colon, male Ces2^–/– mice, read-out: Ccolon (colon concentration)
[7] = colon, male Ces2^–/–A mice, read-out: Ccolon (colon concentration)
[8] = colon, male Ces2^–/–V mice, read-out: Ccolon (colon concentration)
[9] = colon, male wild-type mice, read-out: Ccolon (colon concentration)
[10] = liver, male Ces2^–/– mice, read-out: Cliver (liver concentration)
[11] = liver, male Ces2^–/–A mice, read-out: Cliver (liver concentration)
[12] = liver, male Ces2^–/–V mice, read-out: Cliver (liver concentration)
[13] = liver, male wild-type mice, read-out: Cliver (liver concentration)
[14] = small intestine contents, male Ces2^–/– mice, read-out: CSIC (small intestine contents concentration)
[15] = small intestine contents, male Ces2^–/–A mice, read-out: CSIC (small intestine contents concentration)
[16] = small intestine contents, male Ces2^–/–V mice, read-out: CSIC (small intestine contents concentration)
[17] = small intestine contents, male wild-type mice, read-out: CSIC (small intestine contents concentration)
[18] = small intestine tissue, male Ces2^–/– mice, read-out: CSI (small intestine tissue concentration)
[19] = small intestine tissue, male Ces2^–/–A mice, read-out: CSI (small intestine tissue concentration)
[20] = small intestine tissue, male Ces2^–/–V mice, read-out: CSI (small intestine tissue concentration)
[21] = small intestine tissue, male wild-type mice, read-out: CSI (small intestine tissue concentration)

AUC(0-t) ([1]; male Ces2^–/– mice): 491 ± 135 ng·h/mL | AUC(0-t) ([1]; male Ces2^–/–A mice): 730 ± 270 ng·h/mL | AUC(0-t) ([1]; male Ces2^–/–V mice): 585 ± 186 ng·h/mL | AUC(0-t) ([1]; male wild-type mice): 362 ± 81 ng·h/mL | Cmax ([1]; male Ces2^–/– mice): 188 ± 63 ng/mL | Tmax ([1]; male Ces2^–/– mice): 1.9 ± 1.9 h | Cmax ([1]; male Ces2^–/–A mice): 333 ± 99 ng/mL | Tmax ([1]; male Ces2^–/–A mice): 1.3 ± 0.9 h | Cmax ([1]; male Ces2^–/–V mice): 243 ± 110 ng/mL | Tmax ([1]; male Ces2^–/–V mice): 2.4 ± 1.5 h | Cmax ([1]; male wild-type mice): 149 ± 59 ng/mL | Tmax ([1]; male wild-type mice): 1.7 ± 0.7 h | AUC(0-t) ([2]; male Ces2^–/– mice): 6040 ± 1950 ng·h/mL | AUC(0-t) ([2]; male Ces2^–/–A mice): 5950 ± 3250 ng·h/mL | AUC(0-t) ([2]; male Ces2^–/–V mice): 9790 ± 5670 ng·h/mL | AUC(0-t) ([2]; male wild-type mice): 8140 ± 4780 ng·h/mL | concentration at 4 h [3, 6]: 581 ± 175 ng/g | concentration at 4 h [3, 7]: 788 ± 189 ng/g | concentration at 4 h [3, 8]: 608 ± 203 ng/g | concentration at 4 h [3, 9]: 348 ± 136 ng/g | concentration at 4 h [3, 10]: 8470 ± 8150 ng/g | concentration at 4 h [3, 11]: 8520 ± 3440 ng/g | concentration at 4 h [3, 12]: 8300 ± 2000 ng/g | concentration at 4 h [3, 13]: 1530 ± 409 ng/g | concentration at 4 h [3, 14]: 159000 ± 46700 ng/g | concentration at 4 h [3, 15]: 177000 ± 73000 ng/g | concentration at 4 h [3, 16]: 114000 ± 19400 ng/g | concentration at 4 h [3, 17]: 77000 ± 29300 ng/g | concentration at 4 h [3, 18]: 18300 ± 4300 ng/g | concentration at 4 h [3, 19]: 18100 ± 3650 ng/g | concentration at 4 h [3, 20]: 15600 ± 6980 ng/g | concentration at 4 h [3, 21]: 10800 ± 3700 ng/g | concentration at 4 h [4, 6]: 5620 ± 3000 ng/g | concentration at 4 h [4, 7]: 5780 ± 3090 ng/g | concentration at 4 h [4, 8]: 6740 ± 1470 ng/g | concentration at 4 h [4, 9]: 2360 ± 692 ng/g | concentration at 4 h [4, 10]: 23400 ± 6110 ng/g | concentration at 4 h [4, 11]: 24300 ± 3720 ng/g | concentration at 4 h [4, 12]: 24700 ± 4450 ng/g | concentration at 4 h [4, 13]: 12200 ± 4960 ng/g | concentration at 4 h [4, 14]: 40100 ± 25500 ng/g | concentration at 4 h [4, 15]: 47200 ± 30900 ng/g | concentration at 4 h [4, 16]: 48400 ± 27000 ng/g | concentration at 4 h [4, 17]: 27700 ± 13400 ng/g | concentration at 4 h [4, 18]: 5920 ± 1350 ng/g | concentration at 4 h [4, 19]: 5600 ± 644 ng/g | concentration at 4 h [4, 20]: 7680 ± 2240 ng/g | concentration at 4 h [4, 21]: 3470 ± 858 ng/g
Structure (SMILES): CCC1=C[C@@H]2CN(C1)Cc1c([nH]c3ccccc13)[C@@](C(=O)OC)(c1cc3c(cc1OC)N(C)[C@H]1[C@@](O)(C(=O)OC)[C@H](OC(C)=O)[C@]4(CC)C=CCN5CC[C@]31[C@@H]54)C2 [Vinorelbine, reference compound]
plasma Cmax [5]: 133.4 ± 42.3 ng/mL
